{
  "source": "patent US7414068B2",
  "about": "“Benzopyran derivatives substituted with secondary amines including tetrazole, method for the preparation thereof and pharmaceutical compositions containing them” (Dongbu Hannong Chemical Co., Ltd., priority 2002, dated 2008)",
  "key": {"[1]": {"test_system": "new born rats", "test": "Protective effect on ischemic-hypoxic brain injury (MRS)", "assay_type": "in vivo, rat", "settings": "for Lip/Cr / Lip/NAA: MRS", "description": "By using the said report, the protective effect on brain damage induced by hypoxia […] was investigated. [Van der A. Toorn et al. Magnetic Resonance in Medicine, 1996, 36, 914-922]. It was reported that the lipid peak was increased in MRS by ischemic neuronal cell injury due to the destruction of cell membrane including blood-brain barrier. Also, it was reported that increase of lipid concentration was correlated to apoptosis. [A. Bizzi et al., Magnetic Resonance Imaging, 1996, 14, 581-592]. Therefore, it was reported that Lipid/NAA and Lipid/Cr obtained by comparing lipid with N-acetylaspartate (NAA) and creatine (Cr) as marker of neuronal cell was correlated to morphological changes and severity of apoptosis on hypoxic brain damage.\nIn new born rats (within 7 days, 10˜15 g), left carotid artery were intermitted for 3 hours to induce hypoxia. Test compounds were intraperitoneally injected before 1 hour of hypoxia. […] of which the carotid artery was intermitted was used as ischemic-hypoxic model, right eye of which the carotid artery was not intermitted was used as hypoxic model. Magnetic resonance spectrum was obtained from both models, after histological test, accomplished in one day from damage. From the said result, Lipid/NAA or Lipid/Cr was measured. Also, viability and morphological score by macroscopic observation of infarct volume was calculated."}, "[2]": {"test_system": "diabetic rats", "test": "Effect on motor nerve conduction velocity in diabetic rats", "assay_type": "in vivo, rat", "settings": "50 mg/kg orally once a day", "description": "Diabetes was induced with injection of Streptozotocin (65 mg/kg) in rats, then test compounds dissolved in 2 ml of media (physiological saline:ethanol:tween 80=1:1:1) were orally administrated once a day. Rats were anesthetized with pentotal, then the sciatic nerve was exposed to measure motor nerve conduction velocity. The nerve was stimulated at two points. The first stimulus electrode was inserted at proximal end, and second electrode stimulus electrode was inserted at the distal notch. The coaxia needle electrode was inserted into interdigitala muscle, then the muscle action potential induced by two points stimulation. The conduction velocity was calculated by dividing the distance between two stimulus points by the latency differences. Lipoic acid (100 mg/kg) was used in comparison with the compound of the present invention in recovery of impaired Motor Nerve Conduction Velocity (MNCV) in diabetic rats. The recovery (%) of Motor Nerve Conduction was calculated according to the following mathematical formula 1."}, "[3]": {"test": "Acute oral toxicity test in rats", "settings": "SD, rat, in vivo, single oral dose, suspended in 0.5% methyl cellulose, read-out: lethal dose (LD50) for oral administration", "how_it_was_run": "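Six-week-old SPF SD rats, two per group, received compounds orally as suspensions in 0.5% methyl cellulose. Endpoints were clinical signs, body weight, mortality, haematology, serum biochemistry and macroscopic necropsy of organs and tissues.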"}, "[4]": {"test_system": "isolated ischemic rat heart", "test": "Cardioprotective effect in ischemic heart models of rats (Langendorff)", "settings": "10 μM", "how_it_was_run": "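Langendorff-perfused male rat hearts (Krebs-Henseleit, 85 mmHg, 37 °C) pretreated 10 min with compound or vehicle (0.04% DMSO), then 30 min global ischemia and 30 min reperfusion. Read-outs: LVDP, HR, CF, rate-pressure product, time to contracture (first 5 mmHg EDP rise), LDH release.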"}, "[5]": {"settings": "Hypoxic, 50 mg/kg intraperitoneally"}},
  "data": [
    {"smiles": "COC(OC)[C@@]1(C)Oc2ccc(N)cc2[C@H](N(Cc2nnn(C)n2)c2ccc(Cl)cc2)[C@H]1O", "note": "[Example 11, (2S,3R,4S)-6-amino-4-[N-(4-chlorophenyl)-N-(2-methyl-2H-tetrazol-5-ylmethyl)amino]-3-hydroxy-2-methyl-2-dimethoxymethyl-3,4-dihydro-2H-1-benzopyran]", "values": [
      {"measurement": "Survival (%)", "setting": "[1]; 50 mg/kg", "value": 79, "unit": "%"},
      {"measurement": "Survival (animals surviving/total)", "setting": "[1]; 50 mg/kg", "value": "19/24"},
      {"measurement": "Morphological score", "setting": "[1]; 50 mg/kg, macroscopic observation of infarct volume", "value": 1.4},
      {"measurement": "Lip/Cr", "setting": "[1]; [5]", "value": 1.55},
      {"measurement": "Lip/NAA", "setting": "[1]; [5]", "value": 1.69},
      {"measurement": "Lip/NAA", "setting": "[1]; Ischemic-hypoxic, 50 mg/kg intraperitoneally 1 hour before hypoxia", "value": 5.43},
      {"measurement": "Lip/Cr", "setting": "[1]; Ischemic-hypoxic, 50 mg/kg intraperitoneally", "value": 5.16},
      {"measurement": "Recovery(%) of motor nerve conduction", "setting": "[2]", "value": 45.8, "unit": "%"},
      {"measurement": "MNCV", "setting": "[2]; streptozotocin diabetic rats", "value": 54, "unit": "m/s"},
      {"measurement": "LD50", "setting": "[3]", "value": "> 2000", "unit": "mg/kg"},
      {"measurement": "EDP (mmHg)", "setting": "[4]; after 30 min global ischemia and reperfusion", "value": 47.6, "unit": "mmHg"},
      {"measurement": "LDH (u/g)", "setting": "[4]; reperfusion LDH release", "value": 16.5, "unit": "u/g"},
      {"measurement": "LVDP X HR (%)", "setting": "[4]; reperfusion, % of pre-treatment DP", "value": 24.8, "unit": "%"},
      {"measurement": "TTC", "setting": "[4]; time to contracture during global ischemia", "value": 19.9, "unit": "min"}
    ]}
  ]
}
